Data: patent publication US9206156B2, “Substituted indole derivatives” (GRÜNENTHAL GMBH, priority 2008, dated 2015)

Legend:
[1] = biological target: T1, ORL1 receptor (Homo sapiens, UniProt P41146); experiment: ORL1 receptor binding assay with 3H-nociceptin/orphanin FQ (WGA-SPA beads); details: c=1 μM test substance; 0.5 nM 3H-nociceptin/orphanin FQ; membranes of recombinant CHO-ORL1 cells
T1 construct: expressed in transfected cells; host or cells: CHO (recombinant CHO-ORL1 cells), membranes
Outline: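 Radioligand displacement on membranes from recombinant CHO-ORL1 cells, 0.5 nM 3H-nociceptin/orphanin FQ, 20 μg membrane protein per batch in 50 mM Hepes pH 7.4, 10 mM MgCl2, 1 mM EDTA. Incubated 1 h at room temperature with WGA-SPA beads, scintillation read. Reported as Ki (nM) or % inhibition at 1 μM.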

[2] = biological target: T2, human μ-opiate receptor (Homo sapiens, UniProt P35372); experiment: μ-opiate receptor binding assay with [3H] naloxone (WGA-SPA beads); details: 1 μmol/l test substance, 1 nmol/l [3H] naloxone, CHO-K1 cell membranes expressing human μ-opiate receptor
T2 construct: purchased NEN, Zaventem, Belgium RB-HOM; host or cells: CHO-K1 cells (membrane preparation)
T2 sequence (P35372 whole entry): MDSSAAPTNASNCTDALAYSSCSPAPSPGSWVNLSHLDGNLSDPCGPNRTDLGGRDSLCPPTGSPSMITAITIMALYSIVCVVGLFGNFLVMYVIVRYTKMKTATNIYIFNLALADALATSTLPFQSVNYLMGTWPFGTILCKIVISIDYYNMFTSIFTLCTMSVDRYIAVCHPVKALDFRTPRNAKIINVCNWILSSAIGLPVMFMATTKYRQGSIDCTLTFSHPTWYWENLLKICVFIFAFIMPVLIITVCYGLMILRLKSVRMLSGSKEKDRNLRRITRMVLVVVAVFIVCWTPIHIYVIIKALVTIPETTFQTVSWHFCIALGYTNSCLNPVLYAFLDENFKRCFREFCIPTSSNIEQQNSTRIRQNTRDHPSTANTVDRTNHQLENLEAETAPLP
Outline: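 CHO-K1 membranes expressing human μ-opiate receptor incubated 90 min at room temperature with 1 nmol/l [3H]naloxone and WGA-SPA beads in 50 mmol/l Tris-HCl with 0.05% azide, 0.06% BSA. Non-specific binding with 25 μmol/l naloxone; % inhibition at 1 μmol/l, or IC50 converted to Ki via Cheng-Prusoff.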

T1 sequence (P41146 whole entry): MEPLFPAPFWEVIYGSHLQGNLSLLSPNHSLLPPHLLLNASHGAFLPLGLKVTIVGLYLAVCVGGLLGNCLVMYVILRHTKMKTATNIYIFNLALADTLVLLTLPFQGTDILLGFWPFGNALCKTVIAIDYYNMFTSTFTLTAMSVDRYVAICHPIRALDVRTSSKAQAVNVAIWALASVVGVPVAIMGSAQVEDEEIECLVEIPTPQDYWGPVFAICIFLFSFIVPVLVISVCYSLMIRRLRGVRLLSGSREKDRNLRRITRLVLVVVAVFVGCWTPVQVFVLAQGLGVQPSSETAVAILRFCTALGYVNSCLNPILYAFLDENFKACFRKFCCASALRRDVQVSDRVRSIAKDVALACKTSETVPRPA

Row | Compound | % Inhibition (ORL1) at 1 μM [1] [%] | % Inhibition (μ) at 1 μM ([2]; 1 µM) [%] | inhibition at 1 µM [1] [%] | inhibition at 1 µM [2] [%] | % Inhibition (μ) at 1 μM [2] [%]
1 | CN(C)C1(c2cccs2)CCN(CCNCc2c[nH]c3ccc(Cl)cc23)CC1 [Example 72, 1-(2-((5-Chloro-1H-indol-3-yl)methylamino)ethyl)-N,N-dimethyl-4-(thiophen-2-yl)piperidin-4-amine] | 95 | 101 |  |  | 
2 | CN(C)C1(c2ccccc2)CCN(C(=O)CCNCc2ccc3cc[nH]c3c2)CC1 [Example 145, 3-((1H-indol-6-yl)methylamino)-1-(4-(dimethylamino)-4-phenylpiperidin-1-yl)propan-1-one] |  |  | 45 | 80 | 
3 | CN(C(=O)CCc1c[nH]c2ccccc12)C(C(=O)N1CCC(c2cccs2)(N(C)C)CC1)c1ccccc1 (centres unmarked) [Example 110, N-(2-(4-(dimethylamino)-4-(thiophen-2-yl)piperidin-1-yl)-2-oxo-1-phenylethyl)-3-(1H-indol-3-yl)-N-methylpropanamide] |  |  | 60 | 92 | 
4 | Cc1[nH]c2ccccc2c1CNC(CC(=O)N1CCC(c2cccs2)(N(C)C)CC1)c1ccccc1 (centres unmarked) [Example 168, 1-(4-(dimethylamino)-4-(thiophen-2-yl)piperidin-1-yl)-3-((2-methyl-1H-indol-3-yl)methylamino)-3-phenylpropan-1-one] |  |  | 73 | 92 | 
5 | CC(C)C(CC(=O)NCCC(=O)N1CCC(c2ccccc2)(N(C)C)CC1)c1c[nH]c2ccccc12 (centres unmarked) [Example 84, N-(3-(4-(dimethylamino)-4-phenylpiperidin-1-yl)-3-oxopropyl)-3-(1H-indol-3-yl)-4-methylpentanamide] |  |  | 95 | 100 | 
6 | CC(C)C(CC(=O)NCCN1CCC(c2cccs2)(N(C)C)CC1)c1c[nH]c2ccccc12 (centres unmarked) [Example 2, N-(2-(4-(Dimethylamino)-4-(thiophen-2-yl)piperidin-1-yl)ethyl)-3-(1H-indol-3-yl)-4-methylpentanamide] |  |  | 96 | 99 | 
7 | CN(CCN1CCC(c2ccccc2)(N(C)C)CC1)C(=O)c1cc2cc(F)ccc2[nH]1 [Example 16, N-(2-(4-(Dimethylamino)-4-phenylpiperidin-1-yl)ethyl)-5-fluoro-N-methyl-1H-indole-2-carboxamide] |  |  | 89 | 94 | 
8 | CN(CCN1CCC(c2ccccc2)(N(C)C)CC1)Cc1c[nH]c2ccccc12 [Example 187, 1-(2-(((1H-indol-3-yl)methyl)(methy)amino)ethyl)-N,N-dimethyl-4-phenylpiperidin-4-amine] | 87 | 100 |  |  | 
9 | CN(CCN1CCC(c2ccccc2)(N(C)C)CC1)Cc1c(-c2ccc(F)cc2)[nH]c2ccccc12 [Example 70, 1-(2-(((2-(4-Fluorophenyl)-1H-indol-3-yl)methyl)(methyl)amino)ethyl)-N,N-dimethyl-4-phenylpiperidin-4-amine] |  |  | 80 | 98 | 
10 | CC(C)C(C(=O)N1CCC(c2ccccc2)(N(C)C)CC1)N(C)C(=O)Cc1c[nH]c2ccc(Br)cc12 (centres unmarked) [Example 83, 2-(5-bromo-1H-indol-3-yl)-N-(1-(4-(dimethylamino)-4-phenylpiperidin-1-yl)-3-methyl-1-oxobutan-2-yl)-N-methylacetamide] |  |  | 95 | 84 | 
11 | CN(C)C1(c2ccccc2)CCN(C(=O)C2CCCN(C(=O)c3ccc4cc[nH]c4c3)C2)CC1 (centres unmarked) [Example 125, (1-(1H-indole-6-carbonyl)piperidin-3-yl)(4-(dimethylamino)-4-phenylpiperidin-1-yl)methanone] |  |  | 42 | 55 | 
12 | CN(CCN1CCC(c2ccccc2)(N(C)C)CC1)Cc1cccc2[nH]ccc12 [Example 194, 1-(2-(((1H-indol-4-yl)methyl)(methy)amino)ethyl)-N,N-dimethyl-4-phenylpiperidin-4-amine] | 56 | 99 |  |  | 
13 | CN(CCN1CCC(c2ccccc2)(N(C)C)CC1)C(=O)c1cc2cc(F)ccc2[nH]1 [Example 3, N-(2-(4-(Dimethylamino)-4-phenylpiperidin-1-yl)ethyl)-5-fluoro-N-methyl-1H-indol-2-amide] | 90 | 92 |  |  | 
14 | CN(C)C1(c2ccccc2)CCN(C(=O)C2CCCN(C(=O)c3ccc4ccn(C)c4c3)C2)CC1 (centres unmarked) [Example 128, (4-(dimethylamino)-4-phenylpiperidin-1-yl)(1-(1-methyl-1H-indole-6-carbonyl)piperidin-3-yl) methanone] |  |  | 39 | 56 | 
15 | CN(CCCN1CCC(c2cccs2)(N(C)C)CC1)C(=O)CCc1c[nH]c2ccccc12 [Example 21, N-(3-(4-(Dimethylamino)-4-(thiophen-2-yl)piperidin-1-yl)propyl)-3-(1H-indol-3-yl)-N-methylpropanamide] |  |  | 62 | 87 | 
16 | CN(C)C1(c2ccccc2)CCN(C(=O)C2CCCN(C(=O)CCc3c[nH]c4ccccc34)C2)CC1 (centres unmarked) [Example 123, 1-(3-(4-(dimethylamino)-4-phenylpiperidine-1-carbonyl)piperidin-1-yl)-3-(1H-indol-3-yl)propan-1-one] |  |  | 43 | 72 | 
17 | CN(C)C1(c2ccccc2)CCN(C(=O)C2CCCN(C(=O)C3CCCc4c3[nH]c3ccc(Cl)cc43)C2)CC1 (centres unmarked) [Example 103, (6-chloro-2,3,4,9-tetrahydro-1H-carbazol-1-yl)(3-(4-(dimethylamino)-4-phenylpiperidine-1-carbonyl)piperidin-1-yl)methanone] |  |  | 65 | 35 | 
18 | COc1ccc2[nH]cc(CN(C)CCN3CCC(c4ccccc4)(N(C)C)CC3)c2c1 [Example 190, 1-(2-(((5-methoxy-1H-indol-3-yl)methyl)(methyl)amino)ethyl)-N,N-dimethyl-4-phenylpiperidin-4-amine] |  |  | 80 | 97 | 
19 | CC(C)c1ccc2c(CN(C)CCN3CCC(c4ccccc4)(N(C)C)CC3)c[nH]c2c1 [Example 73, 1-(2-(((6-Isopropyl-1H-indol-3-yl)methyl)(methyl)amino)ethyl)-N,N-dimethyl-4-phenylpiperidin-4-amine] | 95 |  |  |  | 95
20 | CC(CC(=O)N1CCCC(C(=O)N2CCC(c3ccccc3)(N(C)C)CC2)C1)c1c[nH]c2ccccc12 (centres unmarked) [Example 122, 1-(3-(4-(dimethylamino)-4-phenylpiperidine-1-carbonyl)piperidin-1-yl)-3-(1H-indol-3-yl)butan-1-one] |  |  | 43 | 84 | 
21 | CC(CC(=O)NCCC(=O)N1CCC(c2ccccc2)(N(C)C)CC1)c1c[nH]c2ccccc12 (centres unmarked) [Example 92, N-(3-(4-(dimethylamino)-4-phenylpiperidin-1-yl)-3-oxopropyl)-3-(1H-indol-3-yl)butanamide] |  |  | 88 | 93 | 
22 | CN(C)C1(c2cccs2)CCN(C(=O)CC(NC(=O)C2CCCc3c2[nH]c2ccc(Cl)cc32)c2ccccc2)CC1 (centres unmarked) [Example 97, 6-chloro-N-(3-(4-(dimethylamino)-4-(thiophen-2-yl)piperidin-1-yl)-3-oxo-1-phenylpropyl)-2,3,4,9-tetrahydro-1H-carbazole-1-carboxamide] |  |  | 77 | 70 | 
23 | COc1ccc2[nH]cc(CN(C)CCN3CCC(c4ccccc4)(N(C)C)CC3)c2c1 [Example 191, 1-(2-(((5-methoxy-1H-indol-3-yl)methyl)(methyl)amino)ethyl)-N,N-dimethyl-4-phenylpiperidin-4-amine] | 80 | 96 |  |  | 
24 | CN(CCN1CCC(c2ccccc2)(N(C)C)CC1)C(=O)C1CCCc2c1[nH]c1ccc(Cl)cc21 (centres unmarked) [Example 127, 6-chloro-N-(2-(4-(dimethylamino)-4-phenylpiperidin-1-yl)ethyl)-N-methyl-2,3,4,9-tetrahydro-1H-carbazole-1-carboxamide] | 39 |  |  | 68 | 
25 | CN(C)C1(c2ccccc2)CCN(C(=O)CCNC(=O)C2CCCc3c2[nH]c2ccc(Cl)cc32)CC1 (centres unmarked) [Example 107, 6-chloro-N-(3-(4-(dimethylamino)-4-phenylpiperidin-1-yl)-3-oxopropyl)-2,3,4,9-tetrahydro-1H-carbazole-1-carboxamide] |  |  | 63 | 52 | 
26 | CN(C)C1(c2ccccc2)CCN(C(=O)C2CCCN(Cc3ccc4cc[nH]c4c3)C2)CC1 (centres unmarked) [Example 152, (1-((1H-indol-6-yl)methyl)piperidin-3-yl)(4-(dimethylamino)-4-phenylpiperidin-1-yl)methanone] |  |  | 80 | 93 | 
27 | CN(C)C1(c2cccs2)CCN(CCNCc2ccc3[nH]ccc3c2)CC1 [Example 69, 1-(2-((1H-Indol-5-yl)methylamino)ethyl)-N,N-dimethyl-4-(thiophen-2-yl)piperidin-4-amine] |  |  | 90 | 96 | 
28 | CN(C)C1(c2cccs2)CCN(C(=O)CNC(=O)C2CCCc3c2[nH]c2ccc(Cl)cc32)CC1 (centres unmarked) [Example 116, 6-chloro-N-(2-(4-(dimethylamino)-4-(thiophen-2-yl)piperidin-1-yl)-2-oxoethyl)-2,3,4,9-tetrahydro-1H-carbazole-1-carboxamide] |  |  | 50 | 83 | 
